In patent US11019818B2, “Herbicidal 3-substituted lactams” (FMC Corporation, priority 2017, dated 2021):

Tests used:
Type in all cases: in vivo
[1] = system: ryegrass, Italian (Italian ryegrass, Lolium multiflorum); test: Test A postemergence, Italian ryegrass; conditions: 0 to 100 scale (0 no effect, 100 complete control), approx. 10 d
From the text: (§1) Seeds of plant species selected from barnyardgrass (Echinochloa crus-galli), kochia (Kochia scoparia), ragweed (common ragweed, Ambrosia elatior), ryegrass, Italian (Italian ryegrass, Lolium multiflorum), foxtail, green (green foxtail, Setaria viridis), and pigweed (Amaranthus retroflexus) were planted into a blend of loam soil and sand and treated preemergence with a directed soil spray using test chemicals formulated in a non-phytotoxic solvent mixture which included a surfactant. At the same time, plants selected from these weed species and also wheat (Triticum aestivum), corn (Zea mays), blackgrass (Alopecurus myosuroides), and galium (catchweed bedstraw, Galium aparine) were planted in pots containing the same blend of loam soil and sand and treated with postemergence applications of test chemicals formulated in the same manner. Plants ranged in height from 2 to 10 cm and were in the one- to two-leaf stage for the postemergence treatment. Treated plants and untreated controls were maintained in a greenhouse for approximately 10 d, after which time all treated plants were compared to untreated controls and visually evaluated for injury. Plant response ratings, summarized in Table A, are based on a 0 to 100 scale where 0 is no effect and 100 is complete control. A dash (-) response means no test result.

[2] = system: ragweed (common ragweed, Ambrosia elatior); test: Test A postemergence, ragweed; conditions: 0 to 100 scale (0 no effect, 100 complete control), approx. 10 d
From the text: as §1

[3] = system: foxtail, green (green foxtail, Setaria viridis); test: Test A postemergence, green foxtail; conditions: 0 to 100 scale (0 no effect, 100 complete control), approx. 10 d
From the text: as §1

[4] = system: galium (catchweed bedstraw, Galium aparine); test: Test A postemergence, galium; conditions: 0 to 100 scale (0 no effect, 100 complete control), approx. 10 d
From the text: as §1

[5] = system: sedge, umbrella (small-flower umbrella sedge, Cyperus difformis); test: Test B flooded paddy test, umbrella sedge; conditions: Flood, 250 g ai/ha; applied to paddy water at 2-leaf stage; visual rating after 13 to 15 d; scale 0 to 100, 0 is no effect, 100 is complete control
Description: (§2) Plant species in the flooded paddy test selected from rice (Oryza sativa), sedge, umbrella (small-flower umbrella sedge, Cyperus difformis), ducksalad (Heteranthera limosa), and barnyardgrass (Echinochloa crus-galli) were grown to the 2-leaf stage for testing. At time of treatment, test pots were flooded to 3 cm above the soil surface, treated by application of test compounds directly to the paddy water, and then maintained at that water depth for the duration of the test. Treated plants and controls were maintained in a greenhouse for 13 to 15 d, after which time all species were compared to controls and visually evaluated. Plant response ratings, summarized in Table B, are based on a scale of 0 to 100 where 0 is no effect and 100 is complete control. A dash (-) response means no test result.

[6] = system: barnyardgrass (Echinochloa crus-galli); test: Test B flooded paddy test, barnyardgrass; conditions: Flood, 250 g ai/ha; applied to paddy water at 2-leaf stage; visual rating after 13 to 15 d; scale 0 to 100, 0 is no effect, 100 is complete control
Description: as §2

[7] = system: pigweed (Amaranthus retroflexus); test: Test A postemergence, pigweed; conditions: 0 to 100 scale (0 no effect, 100 complete control), approx. 10 d
From the text: as §1

kochia (Kochia scoparia) [8] = test: Test A preemergence, kochia; conditions: 0 to 100 scale (0 no effect, 100 complete control), approx. 10 d
From the text: as §1

[9] = system: ducksalad (Heteranthera limosa); test: Test B flooded paddy test, ducksalad; conditions: Flood, 250 g ai/ha; applied to paddy water at 2-leaf stage; visual rating after 13 to 15 d; scale 0 to 100, 0 is no effect, 100 is complete control
Description: as §2

[10] = system: wheat (Triticum aestivum); test: Test A postemergence, wheat; conditions: 0 to 100 scale (0 no effect, 100 complete control), approx. 10 d
From the text: as §1

[11] = system: pigweed (Amaranthus retroflexus); test: Test A preemergence, pigweed; conditions: 0 to 100 scale (0 no effect, 100 complete control), approx. 10 d
From the text: as §1

[12] = system: barnyardgrass (Echinochloa crus-galli); test: Test A preemergence, barnyardgrass; conditions: 0 to 100 scale (0 no effect, 100 complete control), approx. 10 d
From the text: as §1

[13] = system: foxtail, green (green foxtail, Setaria viridis); test: Test A preemergence, green foxtail; conditions: 0 to 100 scale (0 no effect, 100 complete control), approx. 10 d
From the text: as §1

rice (Oryza sativa) = test: Test B flooded paddy test, rice; conditions: Flood, 250 g ai/ha; applied to paddy water at 2-leaf stage; visual rating after 13 to 15 d; scale 0 to 100, 0 is no effect, 100 is complete control
Description: as §2

[14] = system: blackgrass (Alopecurus myosuroides); test: Test A postemergence, blackgrass; conditions: 0 to 100 scale (0 no effect, 100 complete control), approx. 10 d
From the text: as §1

[15] = system: ragweed (common ragweed, Ambrosia elatior); test: Test A preemergence, ragweed; conditions: 0 to 100 scale (0 no effect, 100 complete control), approx. 10 d
From the text: as §1

[16] = system: ryegrass, Italian (Italian ryegrass, Lolium multiflorum); test: Test A preemergence, Italian ryegrass; conditions: 0 to 100 scale (0 no effect, 100 complete control), approx. 10 d
From the text: as §1

[17] = system: barnyardgrass (Echinochloa crus-galli); test: Test A postemergence, barnyardgrass; conditions: 0 to 100 scale (0 no effect, 100 complete control), approx. 10 d
From the text: as §1

corn (Zea mays) = test: Test A postemergence, corn; conditions: 0 to 100 scale (0 no effect, 100 complete control), approx. 10 d
From the text: as §1

kochia (Kochia scoparia) [18] = test: Test A postemergence, kochia; conditions: 0 to 100 scale (0 no effect, 100 complete control), approx. 10 d
From the text: as §1

Row | Structure (SMILES) | Plant response rating, Ryegrass, Italian ([1]; 31 g ai/ha) | Plant response rating, Ryegrass, Italian ([1]; 125 g ai/ha) | Plant response rating, Ragweed ([2]; 31 g ai/ha) | Plant response rating, Ragweed ([2]; 125 g ai/ha) | Plant response rating, Foxtail, Green ([3]; 31 g ai/ha) | Plant response rating, Foxtail, Green ([3]; 125 g ai/ha) | Plant response rating, Galium ([4]; 31 g ai/ha) | Plant response rating, Galium ([4]; 125 g ai/ha) | Plant response rating, Sedge, Umbrella [5] | Plant response rating, Barnyardgrass [6] | Plant response rating, Pigweed ([7]; 31 g ai/ha) | Plant response rating, Pigweed ([7]; 125 g ai/ha) | Plant response rating, Kochia (kochia (Kochia scoparia) [8]; 31 g ai/ha) | Plant response rating, Kochia (kochia (Kochia scoparia) [8]; 125 g ai/ha) | Plant response rating, Ducksalad [9] | Plant response rating, Wheat ([10]; 31 g ai/ha) | Plant response rating, Wheat ([10]; 125 g ai/ha) | Plant response rating, Pigweed ([11]; 31 g ai/ha) | Plant response rating, Pigweed ([11]; 125 g ai/ha) | Plant response rating, Barnyardgrass ([12]; 31 g ai/ha) | further results
1 | CCNC(=O)C1(C(=O)Nc2cccc(F)c2F)C(=O)N(C)CC1c1ccc(C(F)(F)F)cc1 (stereo not drawn) [Compound 7] | 0 | 10 | 0 | 0 | 0 | 20 | 0 | 30 | 0 | 0 | 10 | 30 | 0 | 0 | 75 | 0 | 0 | 0 | 10 | 0 | Plant response rating, Barnyardgrass ([12]; 125 g ai/ha): 70; Plant response rating, Foxtail, Green ([13]; 31 g ai/ha): 0; Plant response rating, Foxtail, Green ([13]; 125 g ai/ha): 80; Plant response rating, Rice (rice (Oryza sativa)): 30; Plant response rating, Blackgrass ([14]; 31 g ai/ha): 0; Plant response rating, Blackgrass ([14]; 125 g ai/ha): 0; Plant response rating, Ragweed ([15]; 31 g ai/ha): 0; Plant response rating, Ragweed ([15]; 125 g ai/ha): 0; Plant response rating, Ryegrass, Italian ([16]; 31 g ai/ha): 0; Plant response rating, Ryegrass, Italian ([16]; 125 g ai/ha): 0; Plant response rating, Barnyardgrass ([17]; 31 g ai/ha): 0; Plant response rating, Barnyardgrass ([17]; 125 g ai/ha): 10; Plant response rating, Corn (corn (Zea mays); 31 g ai/ha): 0; Plant response rating, Corn (corn (Zea mays); 125 g ai/ha): 0; Plant response rating, Kochia (kochia (Kochia scoparia) [18]; 31 g ai/ha): 0; Plant response rating, Kochia (kochia (Kochia scoparia) [18]; 125 g ai/ha): 0
2 | CC(C)NC(=O)C1(C(=O)Nc2cccc(F)c2F)C(=O)N(C)CC1c1ccc(C(F)(F)F)cc1 (stereo not drawn) [Compound 8] | 0 | 0 | 0 | 0 | 0 | 0 | 0 | 0 | 0 | 0 | 0 | 0 | 0 | 0 | 0 | 0 | 0 | 0 | 0 | 0 | Plant response rating, Barnyardgrass ([12]; 125 g ai/ha): 0; Plant response rating, Foxtail, Green ([13]; 31 g ai/ha): 0; Plant response rating, Foxtail, Green ([13]; 125 g ai/ha): 0; Plant response rating, Rice (rice (Oryza sativa)): 0; Plant response rating, Blackgrass ([14]; 31 g ai/ha): 0; Plant response rating, Blackgrass ([14]; 125 g ai/ha): 0; Plant response rating, Ragweed ([15]; 31 g ai/ha): 0; Plant response rating, Ragweed ([15]; 125 g ai/ha): 0; Plant response rating, Ryegrass, Italian ([16]; 31 g ai/ha): 0; Plant response rating, Ryegrass, Italian ([16]; 125 g ai/ha): 0; Plant response rating, Barnyardgrass ([17]; 31 g ai/ha): 0; Plant response rating, Barnyardgrass ([17]; 125 g ai/ha): 0; Plant response rating, Corn (corn (Zea mays); 31 g ai/ha): 0; Plant response rating, Corn (corn (Zea mays); 125 g ai/ha): 0; Plant response rating, Kochia (kochia (Kochia scoparia) [18]; 31 g ai/ha): 0; Plant response rating, Kochia (kochia (Kochia scoparia) [18]; 125 g ai/ha): 0
3 | CN(C)CC1(C(=O)Nc2cccc(F)c2F)C(=O)N(C)CC1c1ccc(C(F)(F)F)cc1 (stereo not drawn) [Compound 9] | 50 | 60 | 30 | 30 | 50 | 90 | 60 | 60 | 0 | 65 | 30 | 80 | 30 | 70 | 95 | 30 | 60 | 70 | 80 | 90 | Plant response rating, Barnyardgrass ([12]; 125 g ai/ha): 90; Plant response rating, Foxtail, Green ([13]; 31 g ai/ha): 90; Plant response rating, Foxtail, Green ([13]; 125 g ai/ha): 90; Plant response rating, Rice (rice (Oryza sativa)): 0; Plant response rating, Blackgrass ([14]; 31 g ai/ha): 50; Plant response rating, Blackgrass ([14]; 125 g ai/ha): 60; Plant response rating, Ragweed ([15]; 31 g ai/ha): 0; Plant response rating, Ragweed ([15]; 125 g ai/ha): 60; Plant response rating, Ryegrass, Italian ([16]; 31 g ai/ha): 60; Plant response rating, Ryegrass, Italian ([16]; 125 g ai/ha): 80; Plant response rating, Barnyardgrass ([17]; 31 g ai/ha): 70; Plant response rating, Barnyardgrass ([17]; 125 g ai/ha): 90; Plant response rating, Corn (corn (Zea mays); 31 g ai/ha): 40; Plant response rating, Corn (corn (Zea mays); 125 g ai/ha): 50; Plant response rating, Kochia (kochia (Kochia scoparia) [18]; 31 g ai/ha): 50; Plant response rating, Kochia (kochia (Kochia scoparia) [18]; 125 g ai/ha): 70
